Test results published in US8137991B2, “Methods of reducing angiogenesis of age-related macular degeneration (AMD) or choroidal neovascularization by an anti-carboxyetheylpyrrole (CFP) antibody” (The Cleveland Clinic Foundation, priority 2006, dated 2012).

Experiments:
[1] = system: chick chorioallantoic membrane (CAM); assay: Chick chorioallantoic membrane (CAM) angiogenesis assay; type: in vivo, chick (white Leghorn embryos); details: VEGF 20 ng, positive control, 48 hours
Experimental: Fertilized 3-day old white Leghorn eggs (CWRU, Squire valley farms) were cracked, and embryos with the yolk intact were placed in 100 mm×20 mm glass bottom Petri dishes. […] CAMs implanted with discs loaded with unmodified dipeptide, HSA, control buffer or with vascular endothelial growth factor (VEGF) were used as negative and positive controls respectively. After 48 hours of incubation, India ink was injected into the vascular system for better visualization of the vessels by a stereomicroscope. Images were captured with a Panasonic CCD camera. Samples were always compared on the same CAM to avoid egg-to-egg variability. For quantitative analysis of vessel density and leakage, CAM images were batch processed using customized macros generated in Image-Pro Plus 5.0 (Media Cybernetics, Silver Spring, Md.). Briefly, a region of interest (ROI) was traced around grafted tissue in each image, each image was then cropped to its ROI, converted to grayscale, and processed using a large spectral filter to enhance the appearance of vasculature whilst omitting presence of larger vessels (determined by filter width). […]
The protein preparations were analyzed for endotoxin and determined to be free of contamination.

[2] = system: rat cornea (limbal blood vessels); assay: Rat corneal micropocket assay, angiogenic response to implanted pellets; type: in vivo, Sprague-Dawley rats; details: pellet 1 mm from limbus, CEP-HSA 1 μg, CEP-dipeptide 37 ng, dipeptide 41 ng
Experimental: Hydron/sucralfate pellets containing unmodified or CEP modified HSA or dipeptide with or without neutralizing antibodies (monoclonal mouse anti-human VEGF, 1.5 μg, R&D systems (MAB293) or monoclonal anti-CEP antibody (Gu, X., et al. (2003) J. Biol. Chem.), 4 μg) were inserted into corneal micropockets (1 mm from the limbus) of Sprague-Dawley rats. Control mouse IgM, 4 μg (eBioscience, cat. #14-4752) and mouse IgG, 1.5 μg (Southern Biotechnology Inc., cat. #0104-01) antibodies were used in control pellets for comparison with anti-CEP and anti-VEGF antibodies respectively. Corneas were examined daily with the aid of a surgical microscope to monitor angiogenic responses to CEP modified peptide or proteins. […] A positive neovascularization response was recorded only if sustained directional in-growth of capillary sprouts and hairpin loops toward the pellet was observed. A negative response was recorded when either no growth is observed or only an occasional sprout or hairpin loop showing no evidence of sustained growth was detected. […] Angiogenic response was analyzed for peak vascular extension and total skeletal (vascular) length using Image-Pro Plus 5.0 (Media Cybernetics, Silver Spring, Md.). […] The resulting image, a single segmented object representing the overall dimensions of the vascular bed, was analyzed for maximum box-width, i.e. extent of vessel penetration. […]

Substance | average skeletal density of CAM vessels [1] | growth of limbal blood vessels towards the pellet [2]
VEGF | ~3.1 | 
acetyl-Gly-Lys-O-methyl ester [dipeptide] |  | did not induce this effect
